US10105437B2, “Epitopes related to coeliac disease” (BTG International Limited, priority 2004, dated 2018)

What follows are sequences tested on PBMC from HLA-DQ2+ coeliac subjects (assay: Interferon gamma ELISPOT, secalin 20mer first round library after rye challenge). Conditions: after rye challenge; 14 subjects.
Assay type: cell-based, human
Experimental: (§1) Peptides were initially dissolved in aqueous acetonitrile (50%). Peptides in aqueous acetonitrile were transferred to sterile 96-well plates and diluted in sterile PBS with 1 mM calcium (250 mcg/ml) and then incubated with tTG (25 mcg/ml) (Sigma T5398) for 6 h 37° C. and then stored frozen (−20° C.) until use.
(§2) IFNγ ELISpot assays (Mabtech, Sweden) were performed in 96-well plates (MAIP S-45, Millipore) in which each well contained 25 mcl of peptide solution and 100 mcl of PBMC (2-8×10^5/well) in RPMI containing 10% heat inactivated human AB serum. After development and drying, IFNγ ELISpot plates were assessed using the MAIP automated ELISpot plate counter. Data was then analysed according to a novel algorithm (Expectation Maximization: EM) to define and quantify interferon-gamma responses to 9mer sequences contained within the peptide library (see FIG. 3 and below). 9mer peptides were then rationalised according to an algorithm that assumes redundancy in T-cell recognition, the “IterativeCluster” algorithm (see FIG. 4 and below), by allowing groups of amino acids with similar chemical properties at any one position in the 9mer, or for glutamate to replace glutamine at any position (assuming deamidation may have occurred).
Secalin and hordein 20mer first round peptide libraries were assessed 3 days after completing rye (bread, 100 g/d for 3 days) or barley (boiled, 100 g/d for 3 days) challenge (“day 6” PBMC interferon gamma ELISPOT responses). Although iterative analysis using 2nd and 3rd round peptide libraries to define epitopes has not yet been performed, the 20mers pre-treated with tTG found to induce “potent” responses shared substantial structural similarity to the bioactive peptides identified after wheat challenge. […] The dominant (>70% maximal response) 20mer after rye challenge was usually […] (SEQ ID NO: 1769) (8/14 subjects), or occasionally […] (SEQ ID NO: 1770) (4/14), […] (SEQ ID NO: 1771) (1/14), […] (SEQ ID NO: 1772) (1/14) and/or […] (SEQ ID NO: 1773) (1/14). Additional peptides noted for greater than 40% maximal response in at least 1 subject include: […]

Sequence | number of subjects with > 70% maximal response | subjects with greater than 40% maximal response
QQLPLQPQQPFPQPQQPIPQ (Description of Artificial Sequence: Synthetic gluten peptide) [rye secalin 20mer] | 2 | 6/14

The sequences below were run on PBMC from HLA-DQ2+ coeliac subjects (assay: Interferon gamma ELISPOT, hordein 20mer first round library after barley challenge). Conditions: not given.
Assay type: cell-based, human
Parameters: key to individual peptide showing maximal response in a single individual (asterisk): *: an asterisk indicates the eight individual peptides showing maximal response in a single individual
Experimental: as §1, §2
Secalin and hordein 20mer first round peptide libraries were assessed 3 days after completing rye (bread, 100 g/d for 3 days) or barley (boiled, 100 g/d for 3 days) challenge (“day 6” PBMC interferon gamma ELISPOT responses). Although iterative analysis using 2nd and 3rd round peptide libraries to define epitopes has not yet been performed, the 20mers pre-treated with tTG found to induce “potent” responses shared substantial structural similarity to the bioactive peptides identified after wheat challenge. […] The dominant (>70% maximal response) 20mer after rye challenge was usually […] (SEQ ID NO: 1769) (8/14 subjects), or occasionally […] (SEQ ID NO: 1770) (4/14), […] (SEQ ID NO: 1771) (1/14), […] (SEQ ID NO: 1772) (1/14) and/or […] (SEQ ID NO: 1773) (1/14). Additional peptides noted for greater than 40% maximal response in at least 1 subject include:
Typically, the dominant peptides after barley challenge included one of six peptide motifs, or were one of eight other individual 20mers “dominant” in only one of 17 subjects after barley challenge. The six motifs identified:
The barley hordein peptides showing at least 40% maximal peptide response in at least one subject include the following, wherein an asterisk indicates the eight individual peptides showing maximal response in a single individual: […]

Sequence | individual peptide showing maximal response in a single individual (asterisk)
PYLPEELSPQYQIPTPLQPQ (Description of Artificial Sequence: Synthetic gluten peptide) [barley hordein 20mer] | *
VSPHPGQQTTVSPHQGQQTT (Description of Artificial Sequence: Synthetic gluten peptide) [barley hordein 20mer] | *
QPQQPFPQPQQPIPYQPQQP (Description of Artificial Sequence: Synthetic gluten peptide) [barley hordein 20mer] | *
PQQPPFWPQQPFPQQPPFGL (Description of Artificial Sequence: Synthetic gluten peptide) [barley hordein 20mer] | *
PQPYPQQPQPFPQQPPFCQQ (Description of Artificial Sequence: Synthetic gluten peptide) [barley hordein 20mer] | *
PQQPQQPFPQPQQPFSWQPQ (Description of Artificial Sequence: Synthetic gluten peptide) [barley hordein 20mer] | *

Same assay, conditions: 17 subjects

Sequence | number of subjects with > 70% maximal response | subjects with at least 40% maximal peptide response
RQLPKYIIPQQPQQPFLLQP (Description of Artificial Sequence: Synthetic gluten peptide) [barley hordein 20mer] | 1 | 1/17
PQQPVPQQPQPYPQQPQPFP (Description of Artificial Sequence: Synthetic gluten peptide) [barley hordein 20mer] | 1 | 5/17
QPQQPQPFPQQPVPQQPQPY (Description of Artificial Sequence: Synthetic gluten peptide) [barley hordein 20mer] | 2 | 5/17
QQPFPQPQQPIPYQPQQPFN (Description of Artificial Sequence: Synthetic gluten peptide) [barley hordein 20mer] | 1 | 5/17
LAAQLPAMCRLEGGGGLLAS (Description of Artificial Sequence: Synthetic gluten peptide) [barley hordein 20mer] | 1 | 1/17
PYLPEELSPQYQIPTPLQPQ (Description of Artificial Sequence: Synthetic gluten peptide) [barley hordein 20mer] | 1 | 1/17
QQPQPFSQQPIPQQPQPYPQ (Description of Artificial Sequence: Synthetic gluten peptide) [barley hordein 20mer] | 8 | 9/17
PQGSEQIIPQQPFPLQPQPF (Description of Artificial Sequence: Synthetic gluten peptide) [barley hordein 20mer] | 1 | 2/17
VSPHPGQQTTVSPHQGQQTT (Description of Artificial Sequence: Synthetic gluten peptide) [barley hordein 20mer] | 1 | 1/17
PFPQPQQPFSWQPQQPFLQP (Description of Artificial Sequence: Synthetic gluten peptide) [barley hordein 20mer] | 0 | 1/17
PFPQPQQPFPWQPQQPFPQP (Description of Artificial Sequence: Synthetic gluten peptide) [barley hordein 20mer] | 0 | 6/17
QPQQPFPQPQQPIPYQPQQP (Description of Artificial Sequence: Synthetic gluten peptide) [barley hordein 20mer] | 1 | 4/17
FQQPQQSYPVQPQQPFPQPQ (Description of Artificial Sequence: Synthetic gluten peptide) [barley hordein 20mer] | 1 | 3/17
PWQPQQPFPQPQEPIPQQPQ (Description of Artificial Sequence: Synthetic gluten peptide) [barley hordein 20mer] | 1 | 1/17
PQQPPFWPQQPFPQQPPFGL (Description of Artificial Sequence: Synthetic gluten peptide) [barley hordein 20mer] | 1 | 1/17
QSQQQFPQPQQPFPQQPQQP (Description of Artificial Sequence: Synthetic gluten peptide) [barley hordein 20mer] | 0 | 1/17
QPFPQPQQPFPWQPQQPFPQ (Description of Artificial Sequence: Synthetic gluten peptide) [barley hordein 20mer] | 2 | 10/17
FPLQPQQPFPQQPQQPFPQQ (Description of Artificial Sequence: Synthetic gluten peptide) [barley hordein 20mer] | 0 | 1/17
FPQPQEPFPQQPQQPFPLQP (Description of Artificial Sequence: Synthetic gluten peptide) [barley hordein 20mer] | 0 | 1/17
PQPYPQQPQPFPQQPPFCQQ (Description of Artificial Sequence: Synthetic gluten peptide) [barley hordein 20mer] | 1 | 1/17
QQQPFPQQPIPQQPQPYPQQ (Description of Artificial Sequence: Synthetic gluten peptide) [barley hordein 20mer] | 2 | 8/17
PQQPQQPFPQPQQPFSWQPQ (Description of Artificial Sequence: Synthetic gluten peptide) [barley hordein 20mer] | 2 | 6/17
PQPFPQQPIPQQPQPYPQQP (Description of Artificial Sequence: Synthetic gluten peptide) [barley hordein 20mer] | 2 | 6/17
QIPYVHPSILQQLNPCKVFL (Description of Artificial Sequence: Synthetic gluten peptide) [barley hordein 20mer] | 1 | 1/17
QPQPYPQQPQPYPQQPFQPQ (Description of Artificial Sequence: Synthetic gluten peptide) [barley hordein 20mer] | 2 | 7/17
QQPFPLQPQQPFPQPQPFPQ (Description of Artificial Sequence: Synthetic gluten peptide) [barley hordein 20mer] | 0 | 1/17
FPQYQIPTPLQPQQPFPQQP (Description of Artificial Sequence: Synthetic gluten peptide) [barley hordein 20mer] | 1 | 2/17
QKYPEQPQQPFPWQQPTIQL (Description of Artificial Sequence: Synthetic gluten peptide) [barley hordein 20mer] | 1 | 1/17
QPFPTPQQFFPYLPQQTFPP (Description of Artificial Sequence: Synthetic gluten peptide) [barley hordein 20mer] | 1 | 4/17
